pIC50: −log10 of the molar value.
molecular target: T1, IL-17A/A (Homo sapiens, UniProt Q16552); assay: HEK-Blue IL-17A/A inhibition assay (SEAP reporter); assay type: cell-based; conditions: HEK-Blue cells (HEK 293 expressing IL-17RA, IL-17RC, Act1); IL-17A/A stimulation; 20 hours; SEAP read at A630; 4-parameter fit
T1 construct: purchased Genscript Z03228
T1 sequence (Q16552 24-155): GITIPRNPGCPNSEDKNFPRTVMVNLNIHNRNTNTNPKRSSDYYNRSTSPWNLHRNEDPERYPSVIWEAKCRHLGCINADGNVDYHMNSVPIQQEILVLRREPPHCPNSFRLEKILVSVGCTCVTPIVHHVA
Outline: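 IC50 from a 4-parameter fit of SEAP signal (Quanti-Blue, A630) after 20 h co-incubation of compound and IL-17A/A. Reporter line: HEK 293 expressing IL-17RA, IL-17RC and Act1 with NFκB-SEAP; compound top final 10, 1 or 0.3 uM, DMSO 0.1% final.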

Row | Compound | pIC50
1 | CC[C@@H](c1ccc(F)cc1)[C@H](NC(=O)c1ccnn1C(C)C)C(=O)Nc1cc(OC)c(C(C)C(=O)NCC(F)(F)F)cc1F (stereo partly drawn) [Compound 177] | 6.00 to 7.00
2 | Cc1cc(NC(=O)[C@@H](NC(=O)c2ccnn2C(C)C)C(C2CC2)C2CC2)c(F)cc1C(C)C(=O)NC(C(N)=O)C(F)(F)F (stereo partly drawn) [Compound 178] | 6.00 to 7.00
3 | COc1cc(NC(=O)[C@@H](NC(=O)c2ccnn2C)C(C2CC2)C2CC2)c(F)cc1C(C)C(=O)N(C)CC(F)(F)F (stereo partly drawn) [Compound 179] | > 7.00
4 | Cc1cc(NC(=O)C(NC(=O)c2ccnn2C(C)C)C(C2CC2)C2CC2)c(F)cc1C(C)C(=O)N1CC(C)OCC1C(F)(F)F (stereo not drawn) [Compound 184] | > 7.00
5 | CC(C(=O)NCC(F)(F)F)c1cc(F)c(NC(=O)[C@@H](NC(=O)c2ccnn2C(C)C)C(C2CC2)C2CC2)cc1N1CCCC1=O (stereo partly drawn) [Compound 187] | 6.00 to 7.00
6 | CC(C(=O)NCC(F)(F)F)c1cc(F)c(NC(=O)[C@@H](NC(=O)c2ccnn2C(C)C)C(C2CC2)C2CC2)cc1N1CCOCC1 (stereo partly drawn) [Compound 188] | > 7.00
7 | CC(=O)NC(C(=O)NCC(F)(F)F)c1ccc(NC(=O)[C@@H](NC(=O)c2ccnn2C(C)C)C(C2CC2)C2CC2)c(F)c1 (stereo partly drawn) [Compound 190] | < 6.00
8 | CCC(C(=O)N(C)CC(F)(F)F)c1ccc(NC(=O)[C@@H](NC(=O)c2ccnn2C(C)C)C(C2CC2)C2CC2)c(F)c1 (stereo partly drawn) [Compound 192] | > 7.00
9 | CC(C)n1nccc1C(=O)N[C@H](C(=O)Nc1ccc(C(CO)C(=O)NCC(F)(F)F)cc1F)C(C1CC1)C1CC1 (stereo partly drawn) [Compound 193] | < 6.00
10 | CCOc1cc(NC(=O)[C@@H](NC(=O)c2ccnn2C(C)C)C(C2CC2)C2CC2)c(F)cc1C(C)C(=O)NCC(F)(F)F (stereo partly drawn) [Compound 194] | 6.00 to 7.00
11 | CCOc1cc(NC(=O)[C@@H](NC(=O)c2ccnn2C(C)C)C(C2CC2)C2CC2)c(F)cc1C(C)C(=O)N(C)CC(F)(F)F (stereo partly drawn) [Compound 195] | > 7.00
12 | CNc1cc(NC(=O)[C@@H](NC(=O)c2ccnn2C(C)C)C(C2CC2)C2CC2)c(F)cc1C(C)C(=O)NCC(F)(F)F (stereo partly drawn) [Compound 196] | < 6.00
13 | Cc1cc(NC(=O)[C@@H](NC(=O)c2nonc2C)C2CCC(F)(F)CC2)c(F)cc1C(C)C(=O)NCC(F)(F)F (stereo partly drawn) [Compound 197] | < 6.00
14 | Cc1cc(NC(=O)[C@@H](NC(=O)c2nonc2C)C2CCC(F)(F)CC2)c(F)cc1C(C)C(=O)N(C)CC(F)(F)F (stereo partly drawn) [Compound 198] | 6.00 to 7.00
15 | CCn1nccc1C(=O)N[C@H](C(=O)Nc1cc(C)c(C(C)C(=O)NCC(F)(F)F)cc1F)[C@H]1CC[C@H](C)CC1 (stereo partly drawn) [Compound 201] | < 6.00
16 | CCn1nccc1C(=O)N[C@H](C(=O)Nc1cc(C)c(C(C)C(=O)N(C)CC(F)(F)F)cc1F)[C@H]1CC[C@H](C)CC1 (stereo partly drawn) [Compound 202] | > 7.00
17 | CC[C@@H](c1ccc(F)cc1)[C@H](NC(=O)c1ccnn1CC)C(=O)Nc1cc(C)c(C(C)C(=O)N(C)CC(F)(F)F)cc1F (stereo partly drawn) [Compound 203] | > 7.00
18 | CC(C(=O)N1CC(C#N)CCC1C(F)(F)F)c1ccc(NC(=O)[C@@H](NC(=O)c2ccnn2C(C)C)C(C2CC2)C2CC2)c(F)c1 (stereo partly drawn) [Compound 204] | 6.00 to 7.00
19 | CCc1nonc1C(=O)N[C@H](C(=O)Nc1cc(C)c(C(C)C(=O)N(C)CC(F)(F)F)cc1F)C(C1CC1)C1CC1 (stereo partly drawn) [Compound 205] | > 7.00

Row | Compound | pIC50
20 | CCc1nonc1C(=O)N[C@H](C(=O)Nc1cc(C)c(C(C)C(=O)NCC(F)(F)F)cc1F)C(C1CC1)C1CC1 (stereo partly drawn) [Compound 206] | 6.00 to 7.00
21 | Cc1cc(NC(=O)[C@@H](NC(=O)c2ccnn2C(C)C)C2CCC(F)(F)CC2)c(F)cc1C(C)C(=O)N(C)CC(F)(F)F (stereo partly drawn) [Compound 207] | > 7.00
22 | Cc1cc(NC(=O)[C@@H](NC(=O)c2ccnn2C(C)C)C(C2CC2)C2CC2)c(F)cc1C(C)C(=O)N(C)CC(F)(F)F (stereo partly drawn) [Compound 208] | > 7.00
23 | Cc1cc(NC(=O)[C@@H](NC(=O)c2ccnn2C(C)C)C(C2CC2)C2CC2)c(F)cc1C(C)C(=O)NC(C1CCOC1)C(F)(F)F (stereo partly drawn) [Compound 209] | > 7.00
24 | Cc1cc(NC(=O)[C@@H](NC(=O)c2nonc2C)C(C2CC2)C2CC2)c(F)cc1C(C)C(=O)NCC(F)(F)F (stereo partly drawn) [Compound 210] | 6.00 to 7.00
25 | Cc1cc(NC(=O)[C@@H](NC(=O)c2nonc2C)C(C2CC2)C2CC2)c(F)cc1C(C)C(=O)N(C)CC(F)(F)F (stereo partly drawn) [Compound 211] | > 7.00
26 | CC(C(=O)NCC(F)(F)F)c1cc(F)c(NC(=O)[C@@H](NC(=O)c2ccnn2C(C)C)C(C2CC2)C2CC2)cc1N(C)C (stereo partly drawn) [Compound 214] | < 6.00
27 | Cc1cc(NC(=O)[C@@H](NC(=O)c2ccnn2C)C2CCC(F)(F)CC2)c(F)cc1C(C)C(=O)NCC(F)(F)F (stereo partly drawn) [Compound 215] | < 6.00
28 | Cc1cc(NC(=O)[C@@H](NC(=O)c2ccnn2C)C2CCC(F)(F)CC2)c(F)cc1C(C)C(=O)N(C)CC(F)(F)F (stereo partly drawn) [Compound 216] | 6.00 to 7.00
29 | CCn1nccc1C(=O)N[C@H](C(=O)Nc1cc(C)c(C(C)C(=O)NCC(F)(F)F)cc1F)C1CCC(F)(F)CC1 (stereo partly drawn) [Compound 217] | < 6.00
30 | CCn1nccc1C(=O)N[C@H](C(=O)Nc1cc(C)c(C(C)C(=O)N(C)CC(F)(F)F)cc1F)C1CCC(F)(F)CC1 (stereo partly drawn) [Compound 218] | > 7.00
31 | CCn1nccc1C(=O)N[C@H](C(=O)Nc1ccc(C(C)C(=O)N2CCC(C(F)(F)F)C2)cc1F)C(C1CC1)C1CC1 (stereo partly drawn) [Compound 221] | 6.00 to 7.00
32 | Cc1cc(NC(=O)[C@@H](NC(=O)c2ccnn2C)C(C2CC2)C2CC2)c(F)cc1C(C)C(=O)NCC(F)(F)F (stereo partly drawn) [Compound 222] | < 6.00
33 | Cc1cc(NC(=O)[C@@H](NC(=O)c2ccnn2C)C(C2CC2)C2CC2)c(F)cc1C(C)C(=O)N(C)CC(F)(F)F (stereo partly drawn) [Compound 223] | > 7.00
34 | CCc1nonc1C(=O)N[C@H](C(=O)Nc1cc(C)c(C(C)C(=O)NCC(F)(F)F)cc1F)C1CCC(F)(F)CC1 (stereo partly drawn) [Compound 224] | 6.00 to 7.00
35 | CCc1nonc1C(=O)N[C@H](C(=O)Nc1cc(C)c(C(C)C(=O)N(C)CC(F)(F)F)cc1F)C1CCC(F)(F)CC1 (stereo partly drawn) [Compound 225] | 6.00 to 7.00
36 | CNCc1cc(NC(=O)[C@@H](NC(=O)c2ccnn2C(C)C)C(C2CC2)C2CC2)c(F)cc1C(C)C(=O)NCC(F)(F)F (stereo partly drawn) [Compound 226] | 6.00 to 7.00
37 | CC(C(=O)N(C)CC(F)(F)F)c1cc(F)c(NC(=O)[C@@H](NC(=O)c2ccnn2C(C)C)C(C2CC2)C2CC2)cc1CNCCO (stereo partly drawn) [Compound 227] | 6.00 to 7.00
38 | CC(C(=O)N1CCC(C(N)=O)C1C(F)(F)F)c1cc(F)c(NC(=O)[C@@H](NC(=O)c2ccnn2C(C)C)C(C2CC2)C2CC2)cc1C(F)(F)F (stereo partly drawn) [Compound 228] | 6.00 to 7.00

Row | Compound | pIC50
39 | CC(C)c1nocc1C(=O)N[C@H](C(=O)Nc1cc(C(F)(F)F)c(C(C)C(=O)NCC(F)(F)F)cc1F)C(C1CC1)C1CC1 (stereo partly drawn) [Compound 229] | < 6.00
40 | CC(C(=O)NCC(F)(F)F)c1cc(F)c(NC(=O)[C@@H](NC(=O)c2ccnn2C(C)C)C(C2CC2)C2CC2)cc1N1CCOCC1 (stereo partly drawn) [Compound 232] | < 6.00
41 | CC(C(=O)N(C)CC(F)(F)F)c1cc(F)c(NC(=O)[C@@H](NC(=O)c2ccnn2C(C)C)C(C2CC2)C2CC2)cc1N(C)C (stereo partly drawn) [Compound 233] | < 6.00
42 | CC(C(=O)NCC(F)(F)F)c1cc(F)c(NC(=O)[C@@H](NC(=O)c2ccnn2C(C)C)C(C2CC2)C2CC2)cc1N(C)C (stereo partly drawn) [Compound 234] | < 6.00
43 | CC(C(=O)N1CCCN1)c1ccc(NC(=O)[C@@H](NC(=O)c2ccnn2C(C)C)C(C2CC2)C2CC2)c(F)c1 (stereo partly drawn) [Compound 235] | < 6.00
44 | CCn1nccc1C(=O)N[C@H](C(=O)Nc1cc(C)c(C(C)C(=O)NCC(F)(F)F)cc1F)C(C1CC1)C1CC1 (stereo partly drawn) [Compound 236] | > 7.00
45 | Cc1c(F)c(NC(=O)[C@@H](NC(=O)c2conc2C2CC2)C(C2CC2)C2CC2)cc(C(F)(F)F)c1C(C)C(=O)NCC(F)(F)F (stereo partly drawn) [Compound 237] | < 6.00
46 | CC(C)c1nonc1C(=O)N[C@H](C(=O)Nc1cc(C(F)(F)F)c(C(C)C(=O)NCC(F)(F)F)cc1F)C(C1CC1)C1CC1 (stereo partly drawn) [Compound 238] | 6.00 to 7.00
47 | CCn1nccc1C(=O)N[C@H](C(=O)Nc1cc(C(F)(F)F)c(C(C)C(=O)N2CC(F)(F)CC2C(F)(F)F)cc1F)C(C1CC1)C1CC1 (stereo partly drawn) [Compound 239] | 6.00 to 7.00
48 | CCn1nccc1C(=O)N[C@H](C(=O)Nc1cc(C(F)(F)F)c(C(C)C(=O)N2CC(F)(F)C(F)(F)C2)cc1F)C(C1CC1)C1CC1 (stereo partly drawn) [Compound 242] | 6.00 to 7.00
49 | CCN(C)C(=O)C(C)c1cc(F)c(NC(=O)[C@@H](NC(=O)c2ccnn2CC)C(C2CC2)C2CC2)cc1C (stereo partly drawn) [Compound 243] | 6.00 to 7.00
50 | CCNC(=O)C(C)c1cc(F)c(NC(=O)[C@@H](NC(=O)c2ccnn2CC)C(C2CC2)C2CC2)cc1C (stereo partly drawn) [Compound 244] | < 6.00
51 | CCn1nccc1C(=O)N[C@H](C(=O)Nc1cc(OC(F)(F)F)c(C(C)C(=O)N(C)CC(F)(F)F)cc1F)C(C1CC1)C1CC1 (stereo partly drawn) [Compound 245] | 6.00 to 7.00
52 | CC(C(=O)N(C)CC(F)(F)F)c1cc(F)c(NC(=O)[C@@H](NC(=O)c2ccnn2C(C)C)C(C2CC2)C2CC2)cc1OC(F)(F)F (stereo partly drawn) [Compound 246] | < 6.00
53 | CC(C(=O)NCC(F)(F)F)c1cc(F)c(NC(=O)[C@@H](NC(=O)c2ccnn2C)C(C2CC2)C2CC2)cc1OC(F)(F)F (stereo partly drawn) [Compound 247] | < 6.00
54 | CCn1nccc1C(=O)N[C@H](C(=O)Nc1cc(OC(F)(F)F)c(C(C)C(=O)NCC(F)(F)F)cc1F)C(C1CC1)C1CC1 (stereo partly drawn) [Compound 248] | < 6.00
55 | COC(=O)Nc1cc(NC(=O)[C@@H](NC(=O)c2ccnn2C(C)C)C(C2CC2)C2CC2)c(F)cc1C(C)C(=O)NCC(F)(F)F (stereo partly drawn) [Compound 249] | 6.00 to 7.00
56 | CC(C(=O)N1CCC(C(N)=O)C1C(F)(F)F)c1cc(F)c(NC(=O)[C@@H](NC(=O)c2ccnn2C(C)C)C(C2CC2)C2CC2)cc1C(F)(F)F (stereo partly drawn) [Compound 250] | > 7.00
57 | Cc1cc(NC(=O)[C@@H](NC(=O)c2nonc2C2CC2)C(C2CC2)C2CC2)c(F)cc1C(C)C(=O)NCC(F)(F)F (stereo partly drawn) [Compound 251] | > 7.00

From patent publication US20240376056A1, “PHENYL ACETAMIDE BASED IL-17A MODULATORS AND USES THEREOF” (DiCE Alpha, Inc., priority 2021, published 2024)
